Reference: ChEMBL document CHEMBL1201862, “PubChem BioAssay data set” (2004)
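In this assay, cells in 96-well plates receive the compound at five concentrations for 48 hours. Endpoints are linearly interpolated between the surrounding concentrations. GI50: concentration for 50% inhibition of growth.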 The source made the active and inactive calls. No stated cut-off is given here; in the data, active = GI50 up to about 1.1 µM and inactive = higher.

What was measured:
Assay in all cases: NCI anticancer screen, dose series, 48 h
ACHN = system: ACHN
BT-549 = system: BT-549
HT-29 = system: HT-29
KM12 = system: KM12
MDA-N = system: MDA-N
NCI-H23 = system: NCI-H23
NCI-H522 = system: NCI-H522
OVCAR-3 = system: OVCAR-3
OVCAR-5 = system: OVCAR-5
OVCAR-8 = system: OVCAR-8
RXF 393 = system: RXF 393
SF-295 = system: SF-295
SF-539 = system: SF-539
SK-MEL-28 = system: SK-MEL-28
SK-OV-3 = system: SK-OV-3
SN12C = system: SN12C
T47D = system: T47D
U-251 = system: U-251
UACC-62 = system: UACC-62
MDA-MB-231 = system: MDA-MB-231

SMILES: C#Cc1cc(-c2nc3ccccc3s2)ccc1N
- GI50 (ACHN): 24 µM (inactive)
- GI50 (BT-549): 20 µM (inactive)
- GI50 (HT-29): 18 µM (inactive)
- GI50 (KM12): 18.9 µM (inactive)
- GI50 (MDA-N): 33 µM (inactive)
- GI50 (NCI-H23): 16.5 µM (inactive)
- GI50 (NCI-H522): 15.8 µM (inactive)
- GI50 (OVCAR-3): 16.8 µM (inactive)
- GI50 (OVCAR-5): 32 µM (inactive)
- GI50 (OVCAR-8): 29.2 µM (inactive)
- GI50 (RXF 393): 25.8 µM (inactive)
- GI50 (SF-295): 20 µM (inactive)
- GI50 (SF-539): 32.2 µM (inactive)
- GI50 (SK-MEL-28): 16.1 µM (inactive)
- GI50 (SK-OV-3): 26.4 µM (inactive)
- GI50 (SN12C): 22 µM (inactive)
- GI50 (T47D): 14.5 µM (inactive)
- GI50 (U-251): 20.6 µM (inactive)
- GI50 (UACC-62): 17.5 µM (inactive)

SMILES: COc1cccc2c1OC1c3ccccc3OCC1(O)C2 (stereo not drawn)
- GI50 (ACHN): > 100 µM (inactive)
- GI50 (BT-549): > 100 µM (inactive)
- GI50 (HT-29): > 100 µM (inactive)
- GI50 (KM12): > 100 µM (inactive)
- GI50 (MDA-MB-231): > 100 µM (inactive)
- GI50 (MDA-N): > 100 µM (inactive)
- GI50 (NCI-H23): > 100 µM (inactive)
- GI50 (NCI-H522): > 100 µM (inactive)
- GI50 (OVCAR-3): > 100 µM (inactive)
- GI50 (OVCAR-5): > 100 µM (inactive)
- GI50 (OVCAR-8): > 100 µM (inactive)
- GI50 (SF-295): > 100 µM (inactive)
- GI50 (SF-539): > 100 µM (inactive)
- GI50 (SK-OV-3): > 100 µM (inactive)
- GI50 (SN12C): > 100 µM (inactive)
- GI50 (T47D): > 100 µM (inactive)
- GI50 (U-251): > 100 µM (inactive)
- GI50 (UACC-62): > 100 µM (inactive)

SMILES: Cc1nc(N)c(N2CCN(CN)CC2)c(O)n1
- GI50 (ACHN): > 100 µM (inactive)
- GI50 (BT-549): > 100 µM (inactive)
- GI50 (HT-29): > 100 µM (inactive)
- GI50 (KM12): > 100 µM (inactive)
- GI50 (MDA-MB-231): > 100 µM (inactive)
- GI50 (MDA-N): > 100 µM (inactive)
- GI50 (NCI-H23): > 100 µM (inactive)
- GI50 (NCI-H522): > 100 µM (inactive)
- GI50 (OVCAR-3): > 100 µM (inactive)
- GI50 (OVCAR-5): > 100 µM (inactive)
- GI50 (OVCAR-8): > 100 µM (inactive)
- GI50 (SF-295): > 100 µM (inactive)
- GI50 (SF-539): > 100 µM (inactive)
- GI50 (SK-MEL-28): > 100 µM (inactive)
- GI50 (SN12C): > 100 µM (inactive)
- GI50 (T47D): > 100 µM (inactive)
- GI50 (U-251): > 100 µM (inactive)

SMILES: CCOC(=O)C(C(=O)OCC)=C1NC2(c3ccccc3Nc3ccc(C)cc32)C(C(=O)OC)S1 (stereo not drawn)
- GI50 (ACHN): 21.4 µM (inactive)
- GI50 (BT-549): 43.6 µM (inactive)
- GI50 (HT-29): 23.9 µM (inactive)
- GI50 (KM12): 14.2 µM (inactive)
- GI50 (MDA-N): 32.9 µM (inactive)
- GI50 (NCI-H23): 25.5 µM (inactive)
- GI50 (NCI-H522): 13.6 µM (inactive)
- GI50 (OVCAR-3): 23.1 µM (inactive)
- GI50 (OVCAR-5): 20.9 µM (inactive)
- GI50 (OVCAR-8): 29.4 µM (inactive)
- GI50 (RXF 393): 7.18 µM (inactive)
- GI50 (SF-295): 10.8 µM (inactive)
- GI50 (SF-539): 42.2 µM (inactive)
- GI50 (SK-MEL-28): > 100 µM (inactive)
- GI50 (SK-OV-3): > 100 µM (inactive)
- GI50 (SN12C): 4.11 µM (inactive)
- GI50 (T47D): 3.96 µM (inactive)
- GI50 (U-251): 23.7 µM (inactive)
- GI50 (UACC-62): 20.8 µM (inactive)

SMILES: CN1B(c2ccccc2)N(C)C(=O)N(C)C1=O
- GI50 (ACHN): > 100 µM (inactive)
- GI50 (BT-549): > 100 µM (inactive)
- GI50 (HT-29): > 100 µM (inactive)
- GI50 (KM12): > 100 µM (inactive)
- GI50 (MDA-N): > 100 µM (inactive)
- GI50 (NCI-H23): > 100 µM (inactive)
- GI50 (OVCAR-5): > 100 µM (inactive)
- GI50 (OVCAR-8): > 100 µM (inactive)
- GI50 (RXF 393): > 100 µM (inactive)
- GI50 (SF-295): > 100 µM (inactive)
- GI50 (SF-539): > 100 µM (inactive)
- GI50 (SK-OV-3): > 100 µM (inactive)
- GI50 (SN12C): > 100 µM (inactive)
- GI50 (T47D): > 100 µM (inactive)
- GI50 (U-251): > 100 µM (inactive)
- GI50 (UACC-62): > 100 µM (inactive)

SMILES: CCCCCCCSCC(O)COC(c1ccccc1)(c1ccccc1)c1ccccc1 (stereo not drawn)
- GI50 (ACHN): 25.5 µM (inactive)
- GI50 (BT-549): 73.1 µM (inactive)
- GI50 (HT-29): 19.7 µM (inactive)
- GI50 (KM12): 0.051 µM (active)
- GI50 (MDA-MB-231): > 100 µM (inactive)
- GI50 (MDA-N): 40.9 µM (inactive)
- GI50 (NCI-H23): 14.8 µM (inactive)
- GI50 (NCI-H522): 35.2 µM (inactive)
- GI50 (OVCAR-3): 29.2 µM (inactive)
- GI50 (OVCAR-5): 34.8 µM (inactive)
- GI50 (OVCAR-8): 61.8 µM (inactive)
- GI50 (SF-295): 35.3 µM (inactive)
- GI50 (SF-539): > 100 µM (inactive)
- GI50 (SK-MEL-28): > 100 µM (inactive)
- GI50 (SK-OV-3): > 100 µM (inactive)
- GI50 (SN12C): 37.7 µM (inactive)
- GI50 (T47D): 32.7 µM (inactive)
- GI50 (U-251): 50.9 µM (inactive)
- GI50 (UACC-62): 65.8 µM (inactive)

SMILES: CC1OC(OC2C(OC(=O)[C@]34CCC(C)(C)C[C@H]3C3=CC[C@@H]5[C@@]6(C)CC[C@H](OC7OC(CO)C(O)C(O)C7OC7OC(CO)C(O)C(O)C7O)C(C)(C)[C@@H]6CC[C@@]5(C)[C@]3(C)CC4)OCC(O)C2O)C(O)C(O)C1OC1OCC(O)C(O)C1O (stereo partly drawn)
- GI50 (ACHN): 11.9 µM (inactive)
- GI50 (BT-549): 9.12 µM (inactive)
- GI50 (HT-29): 7.03 µM (inactive)
- GI50 (KM12): 7.73 µM (inactive)
- GI50 (MDA-MB-231): 7.83 µM (inactive)
- GI50 (NCI-H23): 9.35 µM (inactive)
- GI50 (NCI-H522): 3.67 µM (inactive)
- GI50 (OVCAR-3): 23.9 µM (inactive)
- GI50 (OVCAR-5): 7.98 µM (inactive)
- GI50 (OVCAR-8): 16.5 µM (inactive)
- GI50 (RXF 393): 9.48 µM (inactive)
- GI50 (SF-295): 11.2 µM (inactive)
- GI50 (SF-539): 45.8 µM (inactive)
- GI50 (SK-MEL-28): 2.65 µM (inactive)
- GI50 (SK-OV-3): 16.3 µM (inactive)
- GI50 (SN12C): 3.13 µM (inactive)
- GI50 (T47D): 15.4 µM (inactive)
- GI50 (U-251): 15.1 µM (inactive)
- GI50 (UACC-62): 16.9 µM (inactive)

SMILES: CCOC(=O)C1=c2[nH]c3cccc4cccc(c43)n2C(=O)CC1
- GI50 (ACHN): > 100 µM (inactive)
- GI50 (BT-549): > 100 µM (inactive)
- GI50 (KM12): 26 µM (inactive)
- GI50 (MDA-N): > 100 µM (inactive)
- GI50 (NCI-H23): > 100 µM (inactive)
- GI50 (OVCAR-3): > 100 µM (inactive)
- GI50 (OVCAR-5): > 100 µM (inactive)
- GI50 (OVCAR-8): 56.5 µM (inactive)
- GI50 (RXF 393): > 100 µM (inactive)
- GI50 (SF-295): > 100 µM (inactive)
- GI50 (SK-MEL-28): > 100 µM (inactive)
- GI50 (SK-OV-3): > 100 µM (inactive)
- GI50 (SN12C): > 100 µM (inactive)
- GI50 (T47D): 22.5 µM (inactive)
- GI50 (U-251): > 100 µM (inactive)
- GI50 (UACC-62): > 100 µM (inactive)

SMILES: CC1=NN(c2nc(N)nc(C(C)Sc3cc(Cl)c(C)cc3S(N)(=O)=O)n2)C(C)(C)C1 (stereo not drawn)
- GI50 (ACHN): > 10 µM (inactive)
- GI50 (BT-549): > 10 µM (inactive)
- GI50 (HT-29): > 10 µM (inactive)
- GI50 (KM12): > 10 µM (inactive)
- GI50 (MDA-N): > 10 µM (inactive)
- GI50 (NCI-H23): > 10 µM (inactive)
- GI50 (NCI-H522): > 10 µM (inactive)
- GI50 (OVCAR-3): > 10 µM (inactive)
- GI50 (OVCAR-5): > 10 µM (inactive)
- GI50 (OVCAR-8): > 10 µM (inactive)
- GI50 (RXF 393): > 10 µM (inactive)
- GI50 (SF-295): > 10 µM (inactive)
- GI50 (SF-539): > 10 µM (inactive)
- GI50 (SK-MEL-28): > 10 µM (inactive)
- GI50 (SK-OV-3): > 10 µM (inactive)
- GI50 (SN12C): > 10 µM (inactive)
- GI50 (T47D): > 10 µM (inactive)
- GI50 (U-251): > 10 µM (inactive)

SMILES: O/N=N\c1nc(-c2cccnc2)nc2ccccc12
- GI50 (ACHN): > 100 µM (inactive)
- GI50 (BT-549): > 100 µM (inactive)
- GI50 (HT-29): 47.8 µM (inactive)
- GI50 (KM12): > 100 µM (inactive)
- GI50 (MDA-MB-231): > 100 µM (inactive)
- GI50 (MDA-N): > 100 µM (inactive)
- GI50 (NCI-H23): > 100 µM (inactive)
- GI50 (NCI-H522): > 100 µM (inactive)
- GI50 (OVCAR-3): > 100 µM (inactive)
- GI50 (OVCAR-5): > 100 µM (inactive)
- GI50 (OVCAR-8): > 100 µM (inactive)
- GI50 (SF-295): > 100 µM (inactive)
- GI50 (SF-539): > 100 µM (inactive)
- GI50 (SK-MEL-28): > 100 µM (inactive)
- GI50 (SK-OV-3): > 100 µM (inactive)
- GI50 (SN12C): > 100 µM (inactive)
- GI50 (T47D): > 100 µM (inactive)
- GI50 (U-251): > 100 µM (inactive)
- GI50 (UACC-62): > 100 µM (inactive)

SMILES: Cc1occc1/C(S)=N\c1ccc(Cl)c(C(=O)OCC(F)(F)F)c1
- GI50 (ACHN): 21.8 µM (inactive)
- GI50 (BT-549): 20.5 µM (inactive)
- GI50 (HT-29): 17.5 µM (inactive)
- GI50 (KM12): 20.8 µM (inactive)
- GI50 (MDA-MB-231): 18 µM (inactive)
- GI50 (MDA-N): 29 µM (inactive)
- GI50 (NCI-H23): 19.7 µM (inactive)
- GI50 (NCI-H522): 20.4 µM (inactive)
- GI50 (OVCAR-3): 29.6 µM (inactive)
- GI50 (OVCAR-5): 34.6 µM (inactive)
- GI50 (OVCAR-8): 16.7 µM (inactive)
- GI50 (SF-539): 4.31 µM (inactive)
- GI50 (SK-MEL-28): 21.5 µM (inactive)
- GI50 (SK-OV-3): 22.3 µM (inactive)
- GI50 (SN12C): 18.8 µM (inactive)
- GI50 (T47D): 26.5 µM (inactive)
- GI50 (U-251): 19 µM (inactive)
- GI50 (UACC-62): 16.4 µM (inactive)
